What was measured:
D(3) dopamine receptor [1] = biological target: T1, D(3) dopamine receptor (Homo sapiens, UniProt P35462); experiment: biochemical
Description: Displacement of [3H]spiroperidol from cloned human dopamine receptor D3 in CHO cell membrane

D(3) dopamine receptor [2] = biological target: T1, D(3) dopamine receptor
Description: Intrinsic activity against dopamine receptor D3 by Eu-GTP binding assay

T1 sequence (P35462 whole entry): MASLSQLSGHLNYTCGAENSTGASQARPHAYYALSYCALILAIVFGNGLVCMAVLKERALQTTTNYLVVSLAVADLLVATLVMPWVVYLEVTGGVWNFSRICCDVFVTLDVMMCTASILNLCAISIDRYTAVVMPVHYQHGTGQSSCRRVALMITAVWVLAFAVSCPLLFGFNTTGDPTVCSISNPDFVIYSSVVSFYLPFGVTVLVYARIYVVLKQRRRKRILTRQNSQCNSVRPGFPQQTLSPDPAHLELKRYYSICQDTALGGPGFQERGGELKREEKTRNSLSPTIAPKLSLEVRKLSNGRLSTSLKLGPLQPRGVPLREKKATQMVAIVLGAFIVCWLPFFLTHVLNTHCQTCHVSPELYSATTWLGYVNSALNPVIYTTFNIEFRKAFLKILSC

Ki (D(3) dopamine receptor [1]) [nM] | EC50 (D(3) dopamine receptor [2]) [nM] | SMILES
1.98 | – | O=C(NCCCCN1CCN(c2cccc(Cl)c2Cl)CC1)c1ccc(-c2ccccc2)cc1
0.3 | – | COc1ccccc1N1CCN(CCCCNC(=O)c2ccc(-c3ccccc3)cc2)CC1
20.6 | 1820 | COc1ccccc1N1CCN(CCCCNC(=O)[C@H]2CC[C@@H](c3ccccc3)CC2)CC1
32.6 | – | COc1ccccc1N1CCN(CCCCNC(=O)c2cccc3ccccc23)CC1
3.4 | – | COc1ccccc1N1CCN(CCCCNC(=O)[C@H]2CC[C@H](c3ccccc3)CC2)CC1
11.9 | 209 | O=C(NCCCCN1CCN(c2cccc(Cl)c2Cl)CC1)c1ccccc1
22.8 | – | O=C(NCCCCN1CCN(c2cccc(Cl)c2Cl)CC1)[C@H]1CC[C@H](c2ccccc2)CC1
10.6 | 631 | O=C(NCCCCN1CCN(c2cccc(Cl)c2Cl)CC1)[C@H]1CC[C@@H](c2ccccc2)CC1

SMILES | Ki (D(3) dopamine receptor [1]) [nM] | EC50 (D(3) dopamine receptor [2]) [nM]
O=C(NCCCCN1CCN(c2cccc(Cl)c2Cl)CC1)c1ccc2ccccc2c1 | 7.9 | –
COc1ccccc1N1CCN(CCCCNC(=O)c2ccc3c(c2)Cc2ccccc2-3)CC1 | 0.52 | 49
O=C(NCCCCN1CCN(c2cccc(Cl)c2Cl)CC1)c1cccc2ccccc12 | 6.9 | 60.3

Reference: ChEMBL document CHEMBL1140426, “First structure-activity relationship study on dopamine D3 receptor agents with N-[4-(4-arylpiperazin-1-yl)butyl]arylcarboxamide structure” (J Med Chem, 2005)
